Laboratory results reported in PMC8280143, “A novel dephosphorylation targeting chimera selectively promoting tau removal in tauopathies” (Signal Transduction and Targeted Therapy, 2021).
Entries after “also recorded” stand apart in the source; their conditions may differ.

Assays:
Tau368 mice = experiment: Morris water maze test; format: in vivo, mouse
Description: Morris water maze tests began 3 days after the novel-object recognition tests. Briefly, mice were trained to find a hidden platform submerged under water in a Morris water maze (1.2 m in diameter) for five consecutive days with three trials per day. Visual cues outside the pool remained constant. In each trial, mice were pseudorandomly placed, facing the pool wall, in one of the three quadrants without platform and allowed to freely seek the hidden platform within 60 s. […] The traveling path of each mouse was recorded and analyzed online using an MWZ-100 video-tracking system (Techman, China). At day 6, each mouse was tested for 60 s in the water maze with the hidden platform removed. Videos were recorded using recorded and time of mice stayed in, and number of entries into the target quadrant previously place the platform were analyzed using MWZ-100 and ANY-maze video tracking system (Stoelting).

human tau (hTau) [1] = experiment: Immunofluorescence staining of phospho-tau in primary neurons with hTau overexpression; format: cell-based; settings: DEPTAC 200 μM for 24 h; *p < 0.05, **p < 0.01, n = 3 cell wells
Description: (§1) Lentivirus LV-EF1α-hTau-GFP (3.50E+8 vg/mL) was packaged by OBiO (Shanghai, China) and used for hTau-overexpression (fused with GFP) in cultured primary rat neurons. AAV-CaMKIIα-Cre (diluted to 5.21E + 07 vg/mL) and AAV-EF1α-DIO-mCherry (3.24E + 12 vg/mL) were obtained from BrainVTA (Wuhan, China) and co-injected (1:1 vol/vol) for sparse labeling of dorsal DG neurons. Doxycycline was purchased from Energy Chemical (Shanghai, China). Rabbit polyclonal DEPTAC antibody was prepared by Daian Biotechnology (Wuhan, China). All other reagents including MG132 were purchased from Sigma-Aldrich (USA), unless otherwise specified.
Primary hippocampal neurons were prepared from E12–E15 days SD rat embryos. Briefly, pregnant rats were acutely executed, hippocampus was dissected on ice and gently minced in DME/F12 (Hyclone) then suspended in 0.125% (vol/vol) trypsin solution at 37 °C for 20 min. Enzymatic activity was stopped by fetal bovine serum. Neurons were initially kept in 10% FBS-containing DME/F12 for 4–6 h, and subsequently cultured in Neurobasal (Hyclone) with 2% B27, 1% glutamax and 1% penicillin–streptomycin (Thermo Fisher Scientific) in dishes pre-coated with 100 μg/mL poly-D-lysine. Serum was gradually removed by replacing half of the medium for each time within the following 2 days. […]

human tau (hTau) [2] = experiment: Western blotting of phospho-tau and total tau in primary neurons with hTau overexpression; format: cell-based
Description: as §1
Primary hippocampal neurons were prepared from E12–E15 days SD rat embryos. Briefly, pregnant rats were acutely executed, hippocampus was dissected on ice and gently minced in DME/F12 (Hyclone) then suspended in 0.125% (vol/vol) trypsin solution at 37 °C for 20 min. Enzymatic activity was stopped by fetal bovine serum. Neurons were initially kept in 10% FBS-containing DME/F12 for 4–6 h, and subsequently cultured in Neurobasal (Hyclone) with 2% B27, 1% glutamax and 1% penicillin–streptomycin (Thermo Fisher Scientific) in dishes pre-coated with 100 μg/mL poly-D-lysine. Serum was gradually removed by replacing half of the medium for each time within the following 2 days. Especially, to inhibit the proteasome-dependent proteolysis, the cultured hippocampal neurons were treated with 5 μM MG132 for 5 h before harvest.
Cultured cells or hippocampus tissues were collected on ice, and homogenized with RIPA lysis buffer containing 50 mM Tris-HCl, 100 mM NaCl, 1% Triton X-100, 5 mM EDTA, and 1:100 PMSF, and then centrifuged at 12,000 × g for 20 min. The supernatant was collected for the analysis of soluble proteins. In some experiments, the pellets were further incubated with 8% SDS buffer at 37 °C and then ultrasound for 60 times to reach a complete resuspension for the analysis of insoluble tau. Protein concentration was measured through BCA assays (Thermo Fisher). Equal amount of protein from each sample were separated in SDS-PAGE gels, and then transferred onto nitrocellulose or 0.22 μm polyvinylidene fluoride membranes (Merck Millipore). The membranes were blocked with 5% BSA, and incubated in turn with primary and horseradish peroxidase-conjugated secondary antibodies: pS199-Tau (44734G, Invitrogen, 1:2000), pT205-Tau (11108-1, Signalway, 1:2000), pS396-Tau (11102, Signalway, 1:2000), pS404-Tau (11112, Signalway, 1:2000), AT8 (MN1020, Thermo Fisher, 1:1000), Tau5 (ab80579, Abcam, 1:1000), Tau46 (T9450, Sigma, 1:1000), PP2A-Bα (4953, Cell signaling, 1:1000), Phospho-Ser/Thr (ab17464, Abcam1:1000), Ubiquitin (ab7254, Abcam, 1:1000), MAP2 (AB5622, Millipore, 1:2000), hTau-N368 (a generous gift from Prof. Keqiang Ye, Emory University School of Medicine, 1:1000), DEPTAC (developed by Daian Biotechnology, Wuhan, China, 1:500), β-actin (ab6276, Abcam, 1:2000). HRP-conjugated goat anti-rabbit IgG (A0208, Beyotime, 1:3000), HRP-conjugated goat anti-mouse IgG (A0216, Beyotime, 1:3000). Blots were visualized using ECL luminol reagent (P0018FS, Beyotime), and quantified using ImageJ software.

[3] = dox-treated Tau368 mice, day 6, platform removed, *p < 0.05
[4] = primary rat hippocampal neurons, hTau overexpression
[5] = primary rat neurons, lentivirus-mediated hTau overexpression, dose- and time-dependent, *p < 0.01, n = 3

Which “spatial learning and memory in control mice” value (Tau368 mice; control mice without human tau accumulation (NW)) does the source give for “(1) YQQYQDATADEQG, originates from the porcine β-tubulin 422–434 for recognizing and binding tau proteins.[5],[6] (2) GSGS, a linker for increasing the flexibility of the peptide.[15] (3) KKVAVVRTPPKSP, for recruiting PP2A-Bα,[16] and (4) RRRRRRRR [DEPTAC, DEPhosphorylation TArgeting Chimera; 38 amino acid residues, C185H314N72O56]” here?
Its value is “only limitedly affected; also recorded: did not statistically change”.

And the “spatial learning deficit in Morris water maze” value (Tau368 mice; dox-treated Tau368 mice, **p < 0.01, *p < 0.05)?
Its value is “rescued; also recorded: significantly alleviated”.

And the “spatial memory impairment in Morris water maze” value (Tau368 mice; dox-treated Tau368 mice, day 6, platform removed)?
The value was “rescued; also recorded: attenuated”.

What about the “number of entries into the target quadrant” value (Tau368 mice; [3]) of the same substance?
Its value is “increased”.

And the “time staying in the target quadrant” value (Tau368 mice; [3])?
The value was “increased”.

What about the “averaged immunoreactive (IR) intensity of phospho-tau” value (human tau (hTau) [1]) of the same substance?
The value was “reduced”.

And the “effective concentration of DEPTAC” value (human tau (hTau) [2]; discussion, only effective above)?
The value was greater than 200 µM.

What about the “effective time window post-administration” value (human tau (hTau) [2]; discussion, only effective within) of the same substance?
The value was no more than 3 days.

And the “concentration of most significant reduction of phospho-tau” value (human tau (hTau) [2]; [4])?
Its value is 200 to 300 µM.

And the “time post administration of most significant reduction of phospho-tau” value (human tau (hTau) [2]; [4])?
Its value is no more than 3 days.

And the “tau phosphorylation at AT8 (Ser199/Ser202/Thr205) epitope” value (human tau (hTau) [2]; [5])?
Its value is “downregulated; also recorded: promoted tau dephosphorylation”.

What about the “tau phosphorylation at pS199” value (human tau (hTau) [2]; [5]) of the same substance?
The value was “downregulated; also recorded: promoted tau dephosphorylation”.

And the “tau phosphorylation at pS396” value (human tau (hTau) [2]; [5])?
The value was “downregulated; also recorded: promoted tau dephosphorylation”.

What about the “tau phosphorylation at pS404” value (human tau (hTau) [2]; [5]) of the same substance?
Its value is “downregulated; also recorded: promoted tau dephosphorylation”.

And the “tau phosphorylation at pT205” value (human tau (hTau) [2]; [5])?
The value was “downregulated; also recorded: promoted tau dephosphorylation”.

And the “total tau probed by Tau5 antibody” value (human tau (hTau) [2]; [5])?
Its value is “reduction of total tau; also recorded: reduced total tau”.
